According to US11484539B2, “Compounds and their uses for alleviating menopause-associated symptoms” (Estetra SPRL, priority 2018, dated 2022):

Test system: post-menopausal women
Assay: Weekly severity of moderate to severe VMS, dose-finding study
Type: in vivo
Text: To determine the Minimum Effective Dose (MED), firstly the selection criteria required that patients presented at least 7 moderate to severe VMS/day or at least 50 moderate to severe VMS/week in the week preceding randomization. Secondly, a placebo group was included in a double-blind fashion. Thirdly, the total patient number was such that statistical significance could be obtained between separate arms of the study. Fourthly, the absolute change from baseline in weekly frequency of moderate to severe VMS was taken into account. An analysis of covariance (ANCOVA) was performed based on the untransformed change in weekly frequency of moderate to severe VMS from baseline. Finally, the change in severity from baseline was evaluated. For this, the Severity Scoring System of VMS was documented by the subjects as follows: • a score of Mild (1) for a sensation of heat without sweating; • a score of Moderate (2) for a sensation of heat with sweating/the subject is able to continue activity; and • a score of Severe (3) for a sensation of heat with sweating/which causes cessation of activity.
In addition, a severity score of zero was attributed to the patients who have experienced a 100% VMS relief during a given week.
From these score records, the severity at baseline was calculated by taking into account only moderate and severe VMS, such that the total number of moderate VMS during the 7 days of the baseline week was multiplied by 2 and added to the total number of severe VMS during the 7 days of the baseline week multiplied by 3. This total was then divided by the total number of moderate and severe VMS during the baseline week.
The severity at weeks 4 and 12 was calculated using the following formula for each of these weeks: • the number of mild VMS during 7 days multiplied by 1; • the number of moderate VMS during 7 days multiplied by 2; • the number of severe VMS during 7 days multiplied by 3. and adding the 3 resulting numbers together before dividing this total by the total number of mild, moderate and severe VMS during the 7 days of the week.
This method was used to generate the data included in Example 1 further below, under section A. b) “VMS Severity”.
In order to better analyse the data recorded in this study, treatment groups have been compared using an ANCOVA (analysis of covariance) with respect to the change in severity of moderate to severe VMS from baseline to mild, moderate and severe VMS at week 4 and week 12 for each active treatment versus placebo. For women who experienced 100% VMS relief at week 4 and/or week 12, a value of zero was attributed. The ANCOVA model includes treatment (“trt1”) as a fixed effect and baseline (“base”) as a covariate. • b) Covariate significance

## C[C@]12CC[C@@H]3c4ccc(O)cc4CC[C@H]3[C@@H]1[C@@H](O)[C@@H](O)[C@@H]2O [E4, 1,3,5 (10)-estratrien-3,15alpha,16alpha,17beta-tetrol]
5 mg E4 vs placebo, week 12
  Difference with placebo, LS adjusted mean, relative change in weekly severity of moderate to severe VMS: 0.1149
10 mg E4, week 4
  LS adjusted mean change from baseline in weekly severity of moderate to severe VMS: −0.4825
  LS adjusted mean relative change from baseline in weekly severity of moderate to severe VMS: −0.2016
10 mg E4, week 12
  LS adjusted mean relative change from baseline in weekly severity of moderate to severe VMS: −0.2862
10 mg E4 QD per os, week 1
  Mean change from baseline in weekly severity of moderate to severe VMS: −0.2028
  Relative change (% from baseline) in weekly severity of moderate to severe VMS, mean: −8%
10 mg E4 QD per os, week 2
  Mean change from baseline in weekly severity of moderate to severe VMS: −0.3007
  Relative change (% from baseline) in weekly severity of moderate to severe VMS, mean: −13%
10 mg E4 QD per os, week 3
  Mean change from baseline in weekly severity of moderate to severe VMS: −0.3983
  Relative change (% from baseline) in weekly severity of moderate to severe VMS, mean: −17%
10 mg E4 QD per os, week 4
  Mean change from baseline in weekly severity of moderate to severe VMS: −0.4842
  Relative change (% from baseline) in weekly severity of moderate to severe VMS, mean: −20%
10 mg E4 QD per os, week 5
  Mean change from baseline in weekly severity of moderate to severe VMS: −0.5107
  Relative change (% from baseline) in weekly severity of moderate to severe VMS, mean: −21%
10 mg E4 QD per os, week 6
  Mean change from baseline in weekly severity of moderate to severe VMS: −0.6086
  Relative change (% from baseline) in weekly severity of moderate to severe VMS, mean: −26%
10 mg E4 QD per os, week 7
  Mean change from baseline in weekly severity of moderate to severe VMS: −0.643
  Relative change (% from baseline) in weekly severity of moderate to severe VMS, mean: −27%
10 mg E4 QD per os, week 8
  Mean change from baseline in weekly severity of moderate to severe VMS: −0.6644
  Relative change (% from baseline) in weekly severity of moderate to severe VMS, mean: −28%
10 mg E4 QD per os, week 9
  Mean change from baseline in weekly severity of moderate to severe VMS: −0.6864
  Relative change (% from baseline) in weekly severity of moderate to severe VMS, mean: −28%
10 mg E4 QD per os, week 10
  Mean change from baseline in weekly severity of moderate to severe VMS: −0.709
  Relative change (% from baseline) in weekly severity of moderate to severe VMS, mean: −29%
10 mg E4 QD per os, week 11
  Mean change from baseline in weekly severity of moderate to severe VMS: −0.666
  Relative change (% from baseline) in weekly severity of moderate to severe VMS, mean: −25%
10 mg E4 QD per os, week 12
  Mean change from baseline in weekly severity of moderate to severe VMS: −0.6941
  Relative change (% from baseline) in weekly severity of moderate to severe VMS, mean: −28%
10 mg E4 vs placebo, week 4
  Difference with placebo, LS adjusted mean, absolute change in weekly severity of moderate to severe VMS: −0.1547
  Difference with placebo, LS adjusted mean, relative change in weekly severity of moderate to severe VMS: −0.06058
10 mg E4 vs placebo, week 12
  Difference with placebo, LS adjusted mean, absolute change in weekly severity of moderate to severe VMS: −0.03512
  Difference with placebo, LS adjusted mean, relative change in weekly severity of moderate to severe VMS: −0.006415
15 mg E4, week 4
  LS adjusted mean change from baseline in weekly severity of moderate to severe VMS: −0.5888
  LS adjusted mean relative change from baseline in weekly severity of moderate to severe VMS: −0.2427
15 mg E4, week 12
  LS adjusted mean relative change from baseline in weekly severity of moderate to severe VMS: −0.4375
15 mg E4 QD per os, week 1
  Mean change from baseline in weekly severity of moderate to severe VMS: −0.072
  Relative change (% from baseline) in weekly severity of moderate to severe VMS, mean: −3%
15 mg E4 QD per os, week 2
  Mean change from baseline in weekly severity of moderate to severe VMS: −0.2853
  Relative change (% from baseline) in weekly severity of moderate to severe VMS, mean: −12%
15 mg E4 QD per os, week 3
  Mean change from baseline in weekly severity of moderate to severe VMS: −0.4842
  Relative change (% from baseline) in weekly severity of moderate to severe VMS, mean: −20%
15 mg E4 QD per os, week 4
  Mean change from baseline in weekly severity of moderate to severe VMS: −0.5897
  Relative change (% from baseline) in weekly severity of moderate to severe VMS, mean: −24%
15 mg E4 QD per os, week 5
  Mean change from baseline in weekly severity of moderate to severe VMS: −0.7432
  Relative change (% from baseline) in weekly severity of moderate to severe VMS, mean: −31%
15 mg E4 QD per os, week 6
  Mean change from baseline in weekly severity of moderate to severe VMS: −0.7035
  Relative change (% from baseline) in weekly severity of moderate to severe VMS, mean: −30%
15 mg E4 QD per os, week 7
  Mean change from baseline in weekly severity of moderate to severe VMS: −0.8112
  Relative change (% from baseline) in weekly severity of moderate to severe VMS, mean: −34%
15 mg E4 QD per os, week 8
  Mean change from baseline in weekly severity of moderate to severe VMS: −0.8854
  Relative change (% from baseline) in weekly severity of moderate to severe VMS, mean: −37%
15 mg E4 QD per os, week 9
  Mean change from baseline in weekly severity of moderate to severe VMS: −0.9092
  Relative change (% from baseline) in weekly severity of moderate to severe VMS, mean: −38%
15 mg E4 QD per os, week 10
  Mean change from baseline in weekly severity of moderate to severe VMS: −0.9628
  Relative change (% from baseline) in weekly severity of moderate to severe VMS, mean: −40%
15 mg E4 QD per os, week 11
  Mean change from baseline in weekly severity of moderate to severe VMS: −1.0123
  Relative change (% from baseline) in weekly severity of moderate to severe VMS, mean: −42%
15 mg E4 QD per os, week 12
  Mean change from baseline in weekly severity of moderate to severe VMS: −1.0425
  Relative change (% from baseline) in weekly severity of moderate to severe VMS, mean: −44%
15 mg E4 vs placebo, week 4
  Difference with placebo, LS adjusted mean, absolute change in weekly severity of moderate to severe VMS: −0.261
  Difference with placebo, LS adjusted mean, relative change in weekly severity of moderate to severe VMS: −0.1017
15 mg E4 vs placebo, week 12
  Difference with placebo, LS adjusted mean, absolute change in weekly severity of moderate to severe VMS: −0.3838
  Difference with placebo, LS adjusted mean, relative change in weekly severity of moderate to severe VMS: −0.1577
15 mg daily dose
  Reduction in the severity of moderate to severe VMS when compared to baseline: over 40%
